Experiment [1] relates to 3T3L1 cells. The experiment is described as follows: Adipogenesis of 3T3L1 cell line, Oil Red-O staining. It counts as cell-based. The method, then: The preadipocyte cell line 3T3L1 was seeded in complete DMEM (supplemented with 10% FBS). Once the cells reached almost full confluent state, they were treated with differentiation media (2 μg/mL Insulin, 0.5 mM IBMX and 1 μM Dexamethasone) for 2 days. After the differentiation induction, the cells were kept in maintenance media (2 μg/mL Insulin) for another 4-6 days with media change given every 2 days. The completion of adipogenesis was confirmed by the observation of lipid droplet accumulation in most of the cells. On the 6th day post induction of differentiation the cells were fixed with 3.7% formaldehyde solution followed by staining with Oil Red-O dye (prepared in 60% isopropanol) for 1 hour at room temperature. The incorporated dye was extracted using isopropanol and absorbance values were determined spectrophotometrically at 510 nm to estimate total amount of lipid accumulation under different experimental conditions.

The subject of experiment [2] is histone acetylation and butyrylation in 3T3L1 cells. Put plainly: Immunoblotting of histone modification status in 3T3L1. It is filed as cell-based. Conditions: 3T3L1 induced to undergo adipogenesis. The method, then:
Histones were acid extracted from both undifferentiated and differentiated 3T3L1 for comparison of acetylation and butyrylation levels. For the acid extraction, 3T3L1 cells were washed with ice-cold PBS (supplemented with 5 mm NaBu) and then resuspended in Triton extraction buffer (PBS containing 0.5% Triton X-100 (v/v) and 2 mM PMSF). The cells were allowed to lyse on ice for 10 minutes, spun down, washed with PBS and the process was repeated another time. Then the proteins were acid extracted with 0.2 N HCl for two hours on ice. The debris was spun down and then histones were precipitated by incubating the supernatant with 33% Trichloroacetic acid at 4° C. for 30 minutes. The histones were then pelleted down and then given two washes with acetone. The pellet was allowed to air-dry for 10 minutes and then resuspended with 50 mm Tris-Cl, pH 7.4.
The histones were then run in 15% SDS-PAGE, transferred onto PVDF membrane, blocked with 5% skimmed milk solution to prevent non-specific antibody binding, and finally probed with antibodies against acetylation and butyrylation marks.
Acid extraction of histones was performed from 3T3L1 cells that had been induced to undergo adipogenesis in the absence of any inhibitor (No Inhibitor), in presence of DMSO (solvent control) and in presence of compound of Formula I. The extraction protocol was the same as that described in Example 7.
Histone acetylation levels in 3T3L1 cells that were treated with compound of Formula I were compared with that in DMSO treated and untreated conditions by immunoblotting with antibodies against acetylated histones H3K18, H3K9 and H4K12 (FIG. 7). Histones H3 and H4 were used as loading controls (panel i). Under similar conditions histone butyrylation levels were compared by immunoblotting using antibodies against butyrylated histone H3K23, H4K5 and pan-butyryl lysine (panel ii).

The test system of experiment [3] is histone butyrylation and acetylation in liver and adipose tissue. Put plainly: Histone modifications in liver and adipose tissue of db/db mice. It is filed as in vivo. The method, then:
Liver sample sectioning and immunohistochemical staining was performed using the same protocol as mentioned in example 15. It was observed that H4K5 butyrylation in liver increased in the db/db obese mice liver but was inhibited in presence of compound of Formula I (FIG. 13A). […] Acid extraction of histones was performed from the epididymal fat pads of mice using the same protocol as mentioned in example 7. It was observed that H4K5 butyrylation was reduced in the adipocytes of db/db mice treated with compound of Formula I compared to db/db mice treated with vehicle control (FIG. 13B).

Experiment [4] relates to genetically obese db/db mice. Put plainly: Body weight gain of genetically obese db/db mice. It is filed as in vivo. Conditions: 50 mg/kg oral gavage. The method, then:
Male db+/− and genetically obese db/db mice (8 weeks old) were obtained and acclimatized for 1 week prior to experiments. Mice were maintained on a 12-hour light/dark cycle at 22+/−3° C. and a relative humidity of 55% and given ad libitum access to food and water.
The age-matched db+/− and db/db mice were maintained on a standard laboratory pelleted diet and water. db/db mice were oral gavaged (50 mg/kg) with LTK14A in 0.5% carboxymethyl cellulose, equal volume of the vehicle was orally gavaged to control db/db mice for a total period of 30 days. db+/− animals were kept as untreated normal control group. The body weights and feed intake was recorded every week throughout the experimental period. The lean and fat mass of the mice were determined using Echo MRI in live mice on day 15th and day 30th.
Trend of weight gaining after 30 days of genetically obese leptin receptor homozygous mutant mice with compound of Formula I was plotted against that of mutant mice treated with vehicle control and also heterozygous mutant mice (FIG. 10)(panel i). Average weight gain, average fat mass and average lean mass of the mice from the three groups are represented in bar p graphs (panel ii, iii and iv respectively); n=4 in each group:one-way ANOVA with Dunnett's multiple comparison; * P<0.05, ** P<0.01, *** P<0.001, ns: not significant.

Take `COc1ccc(C(=O)C2=C3OC(C)(C)[C@@H](CC=C(C)C)C[C@@]34C[C@@H](CC=C(C)C)C(C)(C)[C@@](CC=C(C)C)(C2=O)C4=O)cc1OC` [Compound X]: in experiment [1], the “adipogenesis, Oil-Red O staining” value is “inhibition of adipogenesis”. In experiment [2], the “H3K23 Bu mark” value is listed as “showed inhibition”; the “H4K5 Bu mark” value is reported as “showed inhibition”; the “histone acetylation (H3K18, H3K9, H4K12)” value is “not found to be affected”. In addition, in experiment [3] (epididymal fat pads, immunoblot), the “H4K5 butyrylation in adipocytes” value is “reduced”. For the same compound, in experiment [3] (immunohistochemistry), the “H4K5 butyrylation in liver” value is given as “inhibited”; the “H4K12 and H3K14 acetylation in liver” value is given as “not affected”. For the same compound, the “effect on fat mass compared to lean mass (Echo MRI)” value in experiment [4] is listed as “greater effect on fat mass”. In addition, the body weight entry in experiment [4] (30 days) was “reduction in body weight”.

The values are drawn from patent publication US20240269106A1, “SMALL MOLECULE MODULATOR TARGETING A RARE HISTONE MODIFICATION REGULATING ADIPOGENESIS AND PHARMACEUTICAL FORMULATION THEREOF” (COUNCIL OF SCIENTIFIC AND INDUSTRIAL RESEARCH AN INDIAN …, priority 2021, published 2024).
